From patent publication US20260176267A1, “PREPARATION OF IMIDAZOPYRIDINE AND IMIDAZOPYRIDAZINE DERIVATIVES AS NOVEL DIACYLGLYCERIDE O-ACYLTRANSFERASE 2 INHIBITORS” (Merck Sharp & Dohme LLC, priority 2022, published 2026)

Molecular target: T1, human DGAT2 (hDGAT2) (Homo sapiens, UniProt Q96PD7)
T1 construct: made in house; host or cells: Sf-9 insect cells (baculovirus), membrane fraction
T1 sequence (Q96PD7 1-388): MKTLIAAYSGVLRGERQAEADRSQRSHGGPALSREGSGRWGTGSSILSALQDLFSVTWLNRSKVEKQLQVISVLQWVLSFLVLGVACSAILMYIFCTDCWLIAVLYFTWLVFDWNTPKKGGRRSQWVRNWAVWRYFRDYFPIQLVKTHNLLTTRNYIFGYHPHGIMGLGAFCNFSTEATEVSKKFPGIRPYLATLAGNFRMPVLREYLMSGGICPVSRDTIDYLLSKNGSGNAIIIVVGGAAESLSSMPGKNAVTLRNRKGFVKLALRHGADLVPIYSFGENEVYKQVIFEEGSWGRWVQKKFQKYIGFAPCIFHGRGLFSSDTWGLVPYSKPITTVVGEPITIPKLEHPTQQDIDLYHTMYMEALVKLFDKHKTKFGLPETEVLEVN
Test: DGAT2 Enzymatic Activity Assay
Type: biochemical
Settings: membrane prep of Sf-9 cells expressing hDGAT2; 13C18-triolein product by LC/MS/MS; 25 μM diolein, 5 μM 13C oleoyl-CoA, rt
Description: Sf-9 insect cells were maintained in Grace's insect cell culture medium with 10% heated-inactivated fetal bovine serum, 1% Pluronic F-68 and 0.14 μg/ml Kanamycine sulfate at 27° C. in a shaker incubator. After infection with untagged baculovirus expressing human DGAT2 (hDGAT2) at multiplicity of infection (MOI) 3 for 48 hours, cells were harvested. Cell pellets were suspended in buffer containing 10 mM Tris-HCl pH 7.5, 1 mM EDTA, 250 mM sucrose and Complete Protease Inhibitor Cocktail (Sigma Aldrich), and sonicated on ice. Cell debris were removed by centrifugation at 2000×g for 15 minutes. Membrane fractions were isolated by ultracentrifugation (100,000×g), resuspended in the same buffer, and frozen (−80° C.) for later use. The protein concentration was determined with the Pierce™ BCA Protein Assay Kit (Thermo Fisher Scientific).
LC/MS/MS analyses were performed using Thermal Fisher's LX4-TSQ Vantage system. This system consists of an Agilent binary high-performance liquid chromatography (HPLC) pump and a TSQ Vantage triple quadrupole MS/MS instrument. For each sample, 2 μL samples from the top organic layer of in-plate liquid-liquid extraction were injected onto a Thermo Betabasic C4 column (2.1 mm×20 mm, 5 μm particle size). The samples were then eluted using the following conditions; mobile phase: Isopropanol:acetonitrile/10 mM ammonium formate=50/35/15 (v/v/v), flow rate: 0.8 mL/min, temperature: 25° C. Data was acquired in positive mode using a heated electrospray ionization (HESI) interface. The operational parameters for the TSQ Vantage MS/MS instrument were a spray voltage of 3000 V, capillary temperature of 280° C., vaporizer temperature 400° C., sheath gas 45 arbitrary unit. Aux gas 10 arbitrary units. […] The peak area was integrated by Xcalibur Quan software. The ratio between the ^13C18 triolein generated in the reaction and spiked in internal standard ^13C21-triolein was used to generate percentage inhibition and IC50 values. Compound percentage inhibition was calculated by the following formula: Inhibition %=1−[(compound response−low control)/(high control−low control)]×100%.
DGAT2 activity was determined by measuring the amount of enzymatic product ^13C18-triolein (^13C-1,2,3-Tri(cis-9-octadecenoyl)glycerol) using the membrane prep mentioned above. The assay was carried out in ABgene 384-well assay plates in a final volume of 25 μL at rt.

| SMILES | IC50 [nM] |
| --- | --- |
| Cc1cnc(Oc2ccc3nc(C(=O)NC4(C)CCS(=O)(=O)CC4)c(C)n3c2)c(OCC(F)(F)F)n1 [Example 78, 3-methyl-N-(4-methyl-1,1-dioxo-thian-4-yl)-6-[5-methyl-3-(2,2,2-trifluoroethoxy)pyrazin-2-yl]oxy-imidazo[1,2-a]pyridine-2-carboxamide] | 3 |
| Cc1c(C(=O)NCC2(C)CS(=O)(=O)C2)nc2ccc(Oc3ncc(F)cc3OCC(F)(F)F)cn12 [Example 110, 6-[[5-fluoro-3-(2,2,2-trifluoroethoxy)-2-pyridyl]oxy]-3-methyl-N-[(3-methyl-1,1-dioxo-thietan-3-yl)methyl]imidazo[1,2-a]pyridine-2-carboxamide] | 957 |
| Cc1c(C(=O)NC2(C)CCS(=O)(=O)CC2)nc2ccc(Oc3ncc(C(F)(F)F)cc3OCC(F)(F)F)cn12 [Example 92, 3-methyl-N-(4-methyl-1,1-dioxo-thian-4-yl)-6-[[3-(2,2,2-trifluoroethoxy)-5-(trifluoromethyl)-2-pyridyl]oxy]imidazo[1,2-a]pyridine-2-carboxamide] | 17 |
| Cc1cc2nc(C(=O)NC3(C)CCS(=O)(=O)CC3)c(C)n2nc1Oc1ncc(F)cc1OCC(F)(F)F [Example 170, 6-[[5-fluoro-3-(2,2,2-trifluoroethoxy)-2-pyridyl]oxy]-3,7-dimethyl-N-(4-methyl-1,1-dioxo-thian-4-yl)imidazo[1,2-b]pyridazine-2-carboxamide] | 15 |
| CC1(NC(=O)c2cn3nc(Oc4ncc(F)cc4OCC(F)(F)F)ccc3n2)CCS(=O)(=O)CC1 [Example 164, 6-[[5-Fluoro-3-(2,2,2-trifluoroethoxy)-2-pyridyl]oxy]-N-(4-methyl-1,1-dioxo-thian-4-yl)imidazo[1,2-b]pyridazine-2-carboxamide] | 16 |
| Cc1cnc(OCC(F)(F)F)c(Oc2ccc3nc(C(=O)NC4(C)CCS(=O)(=O)CC4)c(C)n3c2)n1 [Example 108, 3-methyl-N-(4-methyl-1,1-dioxo-thian-4-yl)-6-[6-methyl-3-(2,2,2-trifluoroethoxy)pyrazin-2-yl]oxy-imidazo[1,2-a]pyridine-2-carboxamide] | 131 |
| CCOc1cccnc1Oc1ccc2nc(C(=O)N[C@H]3CC[C@](OC)(C(F)(F)F)CC3)cn2c1 [Example 26, 6-[(3-ethoxy-2-pyridyl)oxy]-N-[4-methoxy-4-(trifluoromethyl)cyclohexyl] imidazo[1,2-a]pyridine-2-carboxamide] | 10 |
| CC1(NC(=O)c2cn3cc(Oc4ncc(Cl)cc4OCC(F)(F)F)c(Cl)cc3n2)CCS(=O)(=O)CC1 [Example 13, 7-chloro-6-[5-chloro-3-(2,2,2-trifluoroethoxy)pyridine-2-yl]oxy-N-(4-methyl-1,1-dioxo-thian-4-yl)imidazo[1,2-a]pyridine-2-carboxamide] | 4.3 |
| Cc1c(C(=O)NC2(C)CCS(=O)(=O)CC2)nc2ccc(Oc3ncc(C(C)(C)F)cc3OCC(F)(F)F)cn12 [Example 147, 6-[[5-(1-fluoro-1-methyl-ethyl)-3-(2,2,2-trifluoroethoxy)-2-pyridyl]oxy]-3-methyl-N-(4-methyl-1,1-dioxo-thian-4-yl)imidazo[1,2-a]pyridine-2-carboxamide] | 41 |
| Cc1cc(Oc2ncc(Cl)cc2OCC(F)F)nn2cc(C(=O)NC3(C)CS(=O)(=O)C3)nc12 [Example 172, 6-[[5-chloro-3-(2,2-difluoroethoxy)-2-pyridyl]oxy]-8-methyl-N-(3-methyl-1,1-dioxo-thietan-3-yl)imidazo[1,2-b]pyridazine-2-carboxamide] | 30 |
| Cc1c(C(=O)NC2(C)CCS(=O)(=O)CC2)nc2ccc(Oc3ncc(F)cc3OCC(F)(F)F)cn12 [Example 88, 6-[[5-fluoro-3-(2,2,2-trifluoroethoxy)-2-pyridyl]oxy]-3-methyl-N-(4-methyl-1,1-dioxo-thian-4-yl)imidazo[1,2-a]pyridine-2-carboxamide] | 8.3 |
| Cc1c(C(=O)NC2(C)CCS(=O)(=O)CC2)nc2ccc(Oc3ncc(F)cc3OCC(F)F)cn12 [Example 73, 6-[[3-(2,2-difluoroethoxy)-5-fluoro-2-pyridyl]oxy]-3-methyl-N-(4-methyl-1,1-dioxo-thian-4-yl)imidazo[1,2-a]pyridine-2-carboxamide] | 2.6 |
| CCC(F)(F)c1cccnc1Oc1ccc2nc(C(=O)NC3(C)CCS(=O)(=O)CC3)cn2c1 [Example 58, 6-[[3-(1,1-difluoropropyl)-2-pyridyl]oxy]-N-(4-methyl-1,1-dioxo-thian-4-yl)imidazo[1,2-a]pyridine-2-carboxamide] | 262 |
| CC1(NC(=O)c2cn3nc(Oc4ncc(Cl)cc4OCC(F)F)ccc3n2)CCS(=O)(=O)CC1 [Example 153, 6-((5-Chloro-3-(2,2-difluoroethoxy)pyridin-2-yl)oxy)-N-(4-methyl-1,1-dioxidotetrahydro-2H-thiopyran-4-yl)imidazo[1,2-b]pyridazine-2-carboxamide] | 3.2 |
| Cc1c(C(=O)NC2(C)CCS(=O)(=O)CC2)nc2cc(C#N)c(Oc3ncc(Cl)cc3OCC(F)(F)F)cn12 [Example 138, 6-[5-chloro-3-(2,2,2-trifluoroethoxy)pyridine-2-yl]oxy-7-cyano-3-methyl-N-(4-methyl-1,1-dioxo-thian-4-yl)imidazo[1,2-a]pyridine-2-carboxamide] | 25 |
| Cc1cc2nc(C(=O)NC3(C)CCS(=O)(=O)CC3)cn2cc1Oc1ncc(Cl)cc1OCC(F)(F)F [Example 30, 6-[[5-chloro-3-(2,2,2-trifluoroethoxy)-2-pyridyl]oxy]-7-methyl-N-(4-methyl-1,1-dioxo-thian-4-yl)imidazo[1,2-a]pyridine-2-carboxamide] | 6.2 |
| Cc1c(C(=O)NC2CS(=O)(=O)C2(C)C)nc2ccc(Oc3ncc(Cl)cc3OCC(F)F)cn12 (centres unmarked) [Example 80, 6-[[5-chloro-3-(2,2-difluoroethoxy)-2-pyridyl]oxy]-N-(2,2-dimethyl-1,1-dioxo-thietan-3-yl)-3-methyl-imidazo[1,2-a]pyridine-2-carboxamide] | 3.8 |
| Cc1c(C(=O)NC2(C(C)C)CCS(=O)(=O)CC2)nc2ccc(Oc3ncc(F)cc3OCC(F)F)cn12 [Example 65, 6-[[3-(2,2-difluoroethoxy)-5-fluoro-2-pyridyl]oxy]-N-(4-isopropyl-1,1-dioxo-thian-4-yl)-3-methyl-imidazo[1,2-a]pyridine-2-carboxamide] | 434 |
| CC1(NC(=O)c2cn3nc(Oc4ncc(F)cc4OC4CCC4)ccc3n2)CCS(=O)(=O)CC1 [Example 158, 6-[[3-(Cyclobutoxy)-5-fluoro-2-pyridyl]oxy]-N-(4-methyl-1,1-dioxo-thian-4-yl)imidazo[1,2-b]pyridazine-2-carboxamide] | 590 |
| Cc1cc(Oc2ncc(Cl)cc2OCC(F)F)nn2cc(C(=O)NC3(C)CCS(=O)(=O)CC3)nc12 [Example 173, 6-[[5-chloro-3-(2,2-difluoroethoxy)-2-pyridyl]oxy]-8-methyl-N-(4-methyl-1,1-dioxo-thian-4-yl)imidazo[1,2-b]pyridazine-2-carboxamide] | 11 |
| Cc1cc2nc(C(=O)NC3(C)CCS(=O)(=O)CC3)cn2cc1Oc1ncc(Cl)cc1OCC1(F)COC1 [Example 41, 6-[[5-chloro-3-[(3-fluorooxetan-3-yl)methoxy]-2-pyridyl]oxy]-7-methyl-N-(4-methyl-1,1-dioxo-thian-4-yl)imidazo[1,2-a]pyridine-2-carboxamide] | 74 |
| CC1(NC(=O)c2cn3cc(Oc4ncccc4O)ccc3n2)CCS(=O)(=O)CC1 [Example 60, 6-[(3-hydroxy-2-pyridyl)oxy]-N-(4-methyl-1,1-dioxo-thian-4-yl)imidazo[1,2-a]pyridine-2-carboxamide] | > 9990 |
| Cc1cc2nc(C(=O)NC3(CC(F)(F)F)CCS(=O)(=O)CC3)cn2cc1Oc1ncc(Cl)cc1OCC(F)(F)F [Example 12, 6-[[5-chloro-3-(2,2,2-trifluoroethoxy)-2-pyridyl]oxy]-N-[1,1-dioxo-4-(2,2,2-trifluoroethyl)thian-4-yl]-7-methyl-imidazo[1,2-a]pyridine-2-carboxamide] | 5.6 |
